According to patent US20180008587A1, “THIOHYDANTOIN ANDROGEN RECEPTOR ANTAGONISTS FOR THE TREATMENT OF CANCER” (Jaressen Pharmaceutica NV, priority 2016, published 2018):
Residue numbers refer to the chain shown, from its start. Where two headings read alike, the source gives them in different places. One block for each molecule: values may come before it.

What was measured:
Type in all cases: cell-based
[1] = target: T1, wild-type Androgen Receptor (AR-wt) (Homo sapiens, UniProt P10275); assay: LNCaP-AR-wt AG reporter assay (ARE firefly luciferase, agonist mode); settings: for Emax: read-out: LNCaP-AR-wt AG MAX % Stim
T1 construct: expressed in transfected cells; host or cells: LNCaP (LNCaP AR (cs))
T1 sequence (P10275 1-920): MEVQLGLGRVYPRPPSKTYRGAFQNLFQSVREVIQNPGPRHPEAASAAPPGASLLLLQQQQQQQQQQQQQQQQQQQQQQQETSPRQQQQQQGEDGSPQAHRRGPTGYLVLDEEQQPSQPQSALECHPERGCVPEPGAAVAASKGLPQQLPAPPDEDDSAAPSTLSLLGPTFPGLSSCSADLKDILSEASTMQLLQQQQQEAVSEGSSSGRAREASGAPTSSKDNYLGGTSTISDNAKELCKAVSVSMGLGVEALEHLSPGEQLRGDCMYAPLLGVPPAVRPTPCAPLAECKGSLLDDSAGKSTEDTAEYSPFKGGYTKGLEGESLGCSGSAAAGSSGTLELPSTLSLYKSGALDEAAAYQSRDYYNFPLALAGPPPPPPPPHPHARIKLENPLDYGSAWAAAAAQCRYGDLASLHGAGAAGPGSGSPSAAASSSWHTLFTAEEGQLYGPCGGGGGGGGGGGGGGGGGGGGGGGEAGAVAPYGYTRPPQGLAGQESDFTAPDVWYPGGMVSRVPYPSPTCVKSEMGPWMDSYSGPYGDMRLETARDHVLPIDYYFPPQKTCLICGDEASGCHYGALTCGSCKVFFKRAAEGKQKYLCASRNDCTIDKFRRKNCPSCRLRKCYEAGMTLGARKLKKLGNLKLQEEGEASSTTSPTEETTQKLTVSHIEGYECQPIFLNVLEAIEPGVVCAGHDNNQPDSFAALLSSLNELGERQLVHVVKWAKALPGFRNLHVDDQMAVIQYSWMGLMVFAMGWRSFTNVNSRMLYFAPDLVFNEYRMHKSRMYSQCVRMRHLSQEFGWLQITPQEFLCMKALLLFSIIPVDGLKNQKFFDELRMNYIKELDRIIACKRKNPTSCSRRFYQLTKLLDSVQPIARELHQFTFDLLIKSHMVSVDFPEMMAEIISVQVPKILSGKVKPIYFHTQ
Protocol: (§1) A stable pooled-population cell line was generated using puromycin (Life Technologies) selection at 1:10,000 v/v. The protocol below was used for both cell lines and for testing of the compounds of Formula (I) of the present invention.
(§2) LNCaP cells were grown to about 80% confluence, media removed and cells rinsed in Hank's balanced salt solution prior to separation from the plate with 0.05% Trypsin EDTA. Cells were lifted and trypsin negated in complete CSS (charcoal stripped serum) culture media. […] Agonist challenge was at 400 pM for WT assay and 600 pM for F876L assay. Plates containing cells and compounds herein were incubated for a further 20-24 hours at 37° C., 5% CO2 before addition of 40 μL/well of Steady-Glo Luciferase Assay System Reagent (Promega# E2520). After 1 h, plates were read for luminescence on a BMG Pherastar.
(§3) EC/IC50 calculations were achieved utilizing calculated RLU data and data fitting macros. Data were fit using least-squares methods to the following formula: […]

[2] = target: T1, wild-type Androgen Receptor (AR-wt); assay: LNCaP-AR-wt ANT reporter assay (ARE firefly luciferase, antagonist mode); settings: for IC50: antagonist mode, 400 pM R-1881 challenge, −Log10(IC50 [Molar]), read-out: LNCaP-AR-wt ANT pIC50 (converted); for Emax: read-out: LNCaP-AR-wt ANT MAX % Inh
Protocol: as §1, §2, §3

[3] = target: T2, F876L mutant Androgen Receptor (AR-F876L) (Homo sapiens, UniProt P10275, F877L); assay: LNCaP-AR-F876L AG reporter assay (ARE firefly luciferase, agonist mode); settings: for Emax: read-out: LNCaP-AR-F876L AG MAX % Stim
T2 construct: expressed in transfected cells; host or cells: LNCaP (LNCaP F876L)
T2 sequence (P10275 1-920 F877L): T1 sequence (P10275 1-920) with F877L
Protocol: as §1, §2, §3

[4] = target: T2, F876L mutant Androgen Receptor (AR-F876L); assay: LNCaP-AR-F876L ANT reporter assay (ARE firefly luciferase, antagonist mode); settings: for Emax: read-out: LNCaP-AR-F876L ANT MAX % Inh; for IC50: read-out: LNCaP-AR-F876L ANT pIC50 (converted)
Protocol: as §1, §2, §3

[5] = agonist mode, −Log10(EC50 [Molar]), read-out: LNCaP-AR-wt AG pEC50 (converted)
[6] = maximum % stimulation (agonist response) over tested concentration range
[7] = maximum % inhibition of R1881 control response over tested concentration range
[8] = agonist mode, −Log10(EC50 [Molar]), read-out: LNCaP-AR-F876L AG pEC50 (converted)

SMILES: N#Cc1ncc(N2C(=O)C3(CCC3)N(c3ccc(C(=O)NCc4cccs4)c(F)c3)C2=S)cc1C(F)(F)F [Cpd 59, 4-[6-[6-cyano-5-(trifluoromethyl)-3-pyridyl]-5-oxo-7-thioxo-6,8-diazaspiro[3.4]octan-8-yl]-2-fluoro-N-(2-thienylmethyl)benzamide]
EC50 [1]: > 15100 nM | Emax [1]: 1.5% | IC50 [2]: 1290 nM | Emax [2]: 102% | EC50 [3]: > 15100 nM | Emax [3]: 0.7% | Emax [4]: 100% | IC50 [4]: 676 nM

SMILES: CNS(=O)(=O)c1ccc(N2C(=S)N(c3cnc(C#N)c(C(F)(F)F)c3)C(=O)C23CCC3)cc1 [Cpd 25, 4-[6-[6-cyano-5-(trifluoromethyl)-3-pyridyl]-5-oxo-7-thioxo-6,8-diazaspiro[3.4]octan-8-yl]-N-methyl-benzenesulfonamide]
EC50 [1, 5]: > 15100 nM | Emax [1, 6]: 1.5% | IC50 [2]: 1000 nM | Emax [2, 7]: 98% | EC50 [3, 8]: > 15100 nM | Emax [3, 6]: 0.2% | Emax [4, 7]: 99.7% | IC50 [4]: 525 nM

SMILES: Cc1cc(N2C(=O)C3(CCC3)N(c3ccc(C(=O)Nc4nccs4)c(F)c3)C2=S)cnc1C#N [Cpd 63, 4-[6-(6-cyano-5-methyl-3-pyridyl)-5-oxo-7-thioxo-6,8-diazaspiro[3.4]octan-8-yl]-2-fluoro-N-thiazol-2-yl-benzamide]
EC50 [1]: > 15100 nM | Emax [1]: 0.7% | IC50 [2]: 776 nM | Emax [2]: 68.6% | EC50 [3]: > 15100 nM | Emax [3]: 0.3% | Emax [4]: 83.4% | IC50 [4]: 219 nM

SMILES: N#Cc1ncc(N2C(=O)C3(CCC3)N(c3cccc4ccccc34)C2=S)cc1C(F)(F)F [Cpd 34, 5-[8-(1-naphthyl)-5-oxo-7-thioxo-6,8-diazaspiro[3.4]octan-6-yl]-3-(trifluoromethyl)pyridine-2-carbonitrile]
EC50 [1]: > 15100 nM | Emax [1]: -0.1% | IC50 [2]: 562 nM | Emax [2]: 99.7% | EC50 [3]: > 15100 nM | Emax [3]: 0.2% | Emax [4]: 99.4% | IC50 [4]: 617 nM

SMILES: Cc1cc(N2C(=O)C3(CCC3)N(c3ccc(C(=O)NC4CCOCC4)c(F)c3)C2=S)cnc1C#N [Cpd 2, 4-[6-(6-cyano-5-methyl-3-pyridyl)-5-oxo-7-thioxo-6,8-diazaspiro[3.4]octan-8-yl]-2-fluoro-N-tetrahydropyran-4-yl-benzamide]
EC50 [1]: > 15100 nM | Emax [1]: 0.8% | IC50 [2]: 2240 nM | Emax [2]: 98.1% | EC50 [3]: > 15100 nM | Emax [3]: -0.4% | Emax [4]: 99.3% | IC50 [4]: 288 nM

The next lines start with the values.

EC50 [1, 5]: > 15100 nM | Emax [1, 6]: 0.2% | IC50 [2]: 1020 nM | Emax [2, 7]: 101% | EC50 [3, 8]: > 15100 nM | Emax [3, 6]: 0.1% | Emax [4, 7]: 100% | IC50 [4]: 437 nM
SMILES: Cc1cc(N2C(=O)C3(CCC3)N(c3ccc(C(=O)Nc4ccnn4C)c(F)c3)C2=S)cnc1C#N [Cpd 45, 4-[6-(6-cyano-5-methyl-3-pyridyl)-5-oxo-7-thioxo-6,8-diazaspiro[3.4]octan-8-yl]-2-fluoro-N-(2-methylpyrazol-3-yl)benzamide]

EC50 [1, 5]: > 15100 nM | Emax [1, 6]: -0.1% | IC50 [2]: 209 nM | Emax [2, 7]: 103% | EC50 [3, 8]: > 15100 nM | Emax [3, 6]: 0% | Emax [4, 7]: 102% | IC50 [4]: 46.8 nM
SMILES: N#Cc1ncc(N2C(=O)C3(CCC3)N(c3ccc(C(=O)NCCc4ccccn4)c(F)c3)C2=S)cc1C(F)(F)F [Cpd 15, 4-[6-[6-cyano-5-(trifluoromethyl)-3-pyridyl]-5-oxo-7-thioxo-6,8-diazaspiro[3.4]octan-8-yl]-2-fluoro-N-[2-(2-pyridyl)ethyl]benzamide]

EC50 [1, 5]: > 15100 nM | Emax [1]: 1.2% | IC50 [2]: 398 nM | Emax [2, 7]: 100% | EC50 [3, 8]: > 15100 nM | Emax [3]: 0.3% | Emax [4, 7]: 99% | IC50 [4]: 229 nM
SMILES: N#Cc1ncc(N2C(=O)C3(CCC3)N(c3ccc(OC(F)(F)F)cc3)C2=S)cc1C(F)(F)F [Cpd 38, 5-[5-oxo-7-thioxo-8-[4-(trifluoromethoxy)phenyl]-6,8-diazaspiro[3.4]octan-6-yl]-3-(trifluoromethyl)pyridine-2-carbonitrile]

EC50 [1, 5]: > 15100 nM | Emax [1, 6]: 0.6% | IC50 [2]: 501 nM | Emax [2, 7]: 101% | EC50 [3, 8]: > 15100 nM | Emax [3, 6]: 0.5% | Emax [4, 7]: 96.5% | IC50 [4]: 257 nM
SMILES: CN1CCC(Oc2ccc(N3C(=S)N(c4cnc(C#N)c(C(F)(F)F)c4)C(=O)C34CCC4)c(F)c2)CC1 [Cpd 49, 5-[8-[2-fluoro-4-[(1-methyl-4-piperidyl)oxy]phenyl]-5-oxo-7-thioxo-6,8-diazaspiro[3.4]octan-6-yl]-3-(trifluoromethyl)pyridine-2-carbonitrile]

EC50 [1, 5]: > 15100 nM | Emax [1, 6]: 0.4% | IC50 [2]: 1100 nM | Emax [2, 7]: 101% | EC50 [3, 8]: > 15100 nM | Emax [3, 6]: 3.9% | Emax [4, 7]: 99.4% | IC50 [4]: 158 nM
SMILES: N#Cc1ncc(N2C(=O)C3(CCC3)N(c3ccc(C(=O)NCCCN4CCCC4)c(F)c3)C2=S)cc1C(F)(F)F [Cpd 118, 4-[6-[6-cyano-5-(trifluoromethyl)-3-pyridyl]-5-oxo-7-thioxo-6,8-diazaspiro[3.4]octan-8-yl]-2-fluoro-N-(3-pyrrolidin-1-ylpropyl)benzamide]

EC50 [1, 5]: > 15100 nM | Emax [1, 6]: 1.1% | IC50 [2]: 617 nM | Emax [2, 7]: 96.3% | EC50 [3, 8]: > 15100 nM | Emax [3, 6]: 0.5% | Emax [4, 7]: 99.2% | IC50 [4]: 398 nM
SMILES: Cc1cc(N2C(=O)C3(CCC3)N(c3ccc(O)cc3)C2=S)cnc1C#N [Cpd 48, 5-[8-(4-hydroxyphenyl)-5-oxo-7-thioxo-6,8-diazaspiro[3.4]octan-6-yl]-3-methyl-pyridine-2-carbonitrile]
